Test results from patent publication US20240287108A1, “nSMASE2 INHIBITOR PRODRUGS WITH ENHANCED ORAL AND BRAIN EXPOSURES” (The Johns Hopkins University, priority 2021, published 2024).
Values belong to the molecule of their own block, whether it stands above or below them.

What was measured:
[1] = in vivo pharmacokinetic studies in mice (Example 1); set-up: species or system mouse; settings: for AUC / MRT / half-life / Cmax: 10 mg/kg
Experimental: 1.2.1 In vitro metabolic stability assessment. In vitro metabolic stability assessment was performed using mouse plasma, and liver homogenates. For the liver homogenates, washed tissues were diluted 10-fold in 0.1 M potassium phosphate buffer and homogenized using a probe sonicator. To evaluate the stability of the intact prodrug over time, each of the tissue matrix were aliquoted to 1 mL and then spiked with 10 μM of corresponding prodrugs followed by incubation in an orbital shaker at 37° C. for 1 h (in triplicate). Sample from each incubation at predetermined time points (0 min, and 1 h) was quenched with three volumes of acetonitrile containing the internal standard (IS: losartan: 0.5 μm). Samples were vortex-mixed for 30 secs and centrifuged at 10,000 RPM for 10 min at 4° C. Disappearance of the intact compound was measured using liquid chromatography tandem mass spectrometry (LC-MS/MS). 1.2.2 In vivo pharmacokinetic studies in mice. Male CD-1 mice (n=3) were used to study the pharmacokinetic profiles of representive prodrug compounds. […] Blood and brain were collected after sacrificing the mice at predetermined time points. Plasma was harvested from blood by centrifugation at 3,000 RPM for 15 min and stored at −80° C. Brain tissues were harvested following blood collection and immediately snap frozen in liquid nitrogen and stored at −80° C. until LC-MS/MS analysis. […] Brain tissues were diluted 1:5 w/v with acetonitrile containing losartan (0.5 μm) and homogenized, followed by vortex-mixing and centrifugation at 10,000 RPM for 10 min at 4° C. A 50 μL aliquot of the supernatant was diluted with 50 μL of water and transferred to 250 μL polypropylene autosampler vials sealed with teflon caps. Then, 2 μL of the sample was injected into the LC-MS/MS system for analysis.

[2] = time-dependent oral pharmacokinetics in mice; format: in vivo, mouse
Experimental: As described earlier, we identified P1 and P18 as the most promising candidates for time dependent PK.
(§1) All PK studies in mice were conducted according to protocols approved by the Animal Care and Use Committee at Johns Hopkins University. Male CD-1 mice between 25 and 30 g were obtained from Harlan and maintained on a 12 h light-dark cycle with ad libitum access to food and water. […] All of the formulations were freshly prepared prior to the dosing. The mice were sacrificed at specified time points (either 2 h or 0.25, 0.5, 1, 2, 4, 6, and 8 h) post drug administration. For the collection of plasma and brain tissue, animals were euthanized with CO2, and blood samples were collected in heparinized microtubes by cardiac puncture. Brains were dissected and immediately flash frozen (−80° C.) Blood samples were spun at 2000 g for 15 min, and plasma was removed and stored at −80° C. until LC-MS/MS analysis. Prior to extraction, frozen samples were thawed on ice.
Brain tissues were diluted 1:5 w/v with acetonitrile containing losartan (0.5 μm) and homogenized, followed by vortex-mixing and centrifugation at 10,000 g for 10 min at 4° C. A 50 μL aliquot of the supernatant were diluted with 50 uL of water and transferred to 250 μL polypropylene autosampler vials sealed with teflon caps. Then, 2 μL of the sample were injected into the LC/MS/MS system for analysis. Chromatographic analysis was performed using an Accela ultra-high-performance system consisting of an analytical pump and an autosampler coupled with a TSQ Vantage mass spectrometer. […] The mobile phase consisted of 0.1% formic acid in acetonitrile and 0.1% formic acid in water with gradient elution were used. […] Plasma concentrations (nmol/ml) as well as brain tissue concentrations (nmol/g) were determined and plots of mean plasma concentration versus time were constructed. Non-compartmental analysis modules in Phoenix WinNonlin version 7.0 (Certara USA, Inc., Princeton, NJ) were used to quantify exposures (AUC0-t).

[3] = single time-point (2 h) oral pharmacokinetic screening in mice; format: in vivo, mouse; settings: single time point PK, oral 10 mg/kg DPTIP equivalent
Experimental: as §1
Brain tissues were diluted 1:5 w/v with acetonitrile containing losartan (0.5 μm) and homogenized, followed by vortex-mixing and centrifugation at 10,000 g for 10 min at 4° C. […] Plasma concentrations (nmol/ml) as well as brain tissue concentrations (nmol/g) were determined and plots of mean plasma concentration versus time were constructed. Non-compartmental analysis modules in Phoenix WinNonlin version 7.0 (Certara USA, Inc., Princeton, NJ) were used to quantify exposures (AUC0-t).

[4] = in vitro stability in CES1−/− mouse liver homogenates; format: in vitro ADME; settings: CES1−/− mouse liver homogenate, 10 μM, 37° C.
Experimental: (§2) All synthesized prodrugs were next screened for in vitro stability in carboxylesterase 1 knockout (CES1^−/−) mouse plasma, as well as CES1^−/− mouse brain and liver homogenates (Table 2-1). We have previously reported that CES1^−/− mouse model recapitulates human prodrug metabolism.
(§3) For the tissue homogenates, washed tissues were diluted 10-fold in 0.1 M potassium phosphate buffer and homogenized using a probe sonicator. To evaluate the stability of the intact prodrug over time, each of the crude homogenates and plasma were aliquoted to 1 mL and then spiked with a final assay concentration of 10 μM of each prodrug followed by incubation in an orbital shaker at 37° C. for 1 h (in triplicate). Sample from each incubation at predetermined time points (0 min, and 1 h) was quenched with three volumes of acetonitrile containing the internal standard (IS; losartan: 0.5 μm). Samples were vortex-mixed for 30 secs and centrifuged at 10,000×g for 10 min at 4° C. Disappearance of intact prodrugs from these samples were performed on a Dionex ultra-high-performance LC system coupled with Q Exactive Focus orbitrap mass spectrometer (Thermo Fisher Scientific Inc., Waltham MA). […] The mobile phase consisted of 0.1% formic acid in water and 0.1% formic acid in acetonitrile. Pumps were operated at a flow rate of 0.4 mL/min for 9 min using gradient elution. The mass spectrometer controlled by Xcalibur software 4.0.27.13 (Thermo Scientific) was operated with a heated electrospray ionization (HESI) ion source in positive ionization mode. Quantification of the prodrugs were performed in the full-scan mode (from m/z 50 to 1600) by comparing t=0 samples with t=60 min samples.

[5] = in vitro stability in CES1−/− mouse plasma; format: in vitro ADME; settings: 10 μM
Experimental: as §2, with “metabolism. Tenora et al., 2019.” for “metabolism.”
Zimmermann et al., 2018. For the tissue homogenates, washed tissues were diluted 10-fold in 0.1 M potassium phosphate buffer and homogenized using a probe sonicator. To evaluate the stability of the intact prodrug over time, each of the crude homogenates and plasma were aliquoted to 1 mL and then spiked with a final assay concentration of 10 μM of each prodrug followed by incubation in an orbital shaker at 37° C. for 1 h (in triplicate). Sample from each incubation at predetermined time points (0 min, and 1 h) was quenched with three volumes of acetonitrile containing the internal standard (IS; losartan: 0.5 μm). Samples were vortex-mixed for 30 secs and centrifuged at 10,000×g for 10 min at 4° C. Disappearance of intact prodrugs from these samples were performed on a Dionex ultra-high-performance LC system coupled with Q Exactive Focus orbitrap mass spectrometer (Thermo Fisher Scientific Inc., Waltham MA). The separation of analytes was achieved using the Agilent Eclipse Plus column (100×2.1 mm i.d.; maintained at 35° C.) packed with a 1.8 μm C18 stationary phase. The mobile phase consisted of 0.1% formic acid in water and 0.1% formic acid in acetonitrile. Pumps were operated at a flow rate of 0.4 mL/min for 9 min using gradient elution. The mass spectrometer controlled by Xcalibur software 4.0.27.13 (Thermo Scientific) was operated with a heated electrospray ionization (HESI) ion source in positive ionization mode. Quantification of the prodrugs were performed in the full-scan mode (from m/z 50 to 1600) by comparing t=0 samples with t=60 min samples.

[6] = previously reported pharmacokinetics; cited from earlier work
EV release = settings: previously reported; in vitro (b234 also in vivo when delivered systemically); cited from earlier work
[7] = in vitro stability in CES1−/− mouse brain homogenates; format: in vitro ADME; settings: CES1−/− mouse brain homogenate, 10 μM, 37° C.
Experimental: as §2, §3

[8] = dog plasma pharmacokinetics; format: in vivo; settings: IV 2 mg/kg
[9] = in vitro metabolic stability in mouse plasma (Example 1); format: in vitro ADME; settings: 10 μM, 37° C.
Experimental: 1.2.1 In vitro metabolic stability assessment. In vitro metabolic stability assessment was performed using mouse plasma, and liver homogenates. For the liver homogenates, washed tissues were diluted 10-fold in 0.1 M potassium phosphate buffer and homogenized using a probe sonicator. To evaluate the stability of the intact prodrug over time, each of the tissue matrix were aliquoted to 1 mL and then spiked with 10 μM of corresponding prodrugs followed by incubation in an orbital shaker at 37° C. for 1 h (in triplicate). Sample from each incubation at predetermined time points (0 min, and 1 h) was quenched with three volumes of acetonitrile containing the internal standard (IS: losartan: 0.5 μm). Samples were vortex-mixed for 30 secs and centrifuged at 10,000 RPM for 10 min at 4° C. Disappearance of the intact compound was measured using liquid chromatography tandem mass spectrometry (LC-MS/MS). 1.2.2 In vivo pharmacokinetic studies in mice. Male CD-1 mice (n=3) were used to study the pharmacokinetic profiles of representive prodrug compounds. […] Blood and brain were collected after sacrificing the mice at predetermined time points. Plasma was harvested from blood by centrifugation at 3,000 RPM for 15 min and stored at −80° C. Brain tissues were harvested following blood collection and immediately snap frozen in liquid nitrogen and stored at −80° C. until LC-MS/MS analysis. […]

[10] = male, CD-1, mouse, in vivo, po, intact prodrug, brain, mice, 10 mg/kg eqv
[11] = male, CD-1, mouse, in vivo, po, intact prodrug, plasma, mice, 10 mg/kg eqv

Structure (SMILES): COc1cc(-c2nc(-c3ccccc3)c(-c3cccs3)[nH]2)cc(OC)c1OC(=O)N1CCC(N2CCCCC2)CC1 [Compound P1, 2,6-Dimethoxy-4-(4-phenyl-5-(thiophen-2-yl)-1H-imidazol-2-yl)phenyl[1,4′-bipiperidine]-1′-carboxylate]
AUC [1, 10]: 0.477 µM·h | MRT [1, 10]: 2.12 h | half-life [1, 10]: 4.37 h | Cmax ([1]; male, CD-1, mouse, in vivo, po, intact prodrug, brain, mice, 10 mg/kg eqv, read-out: Cmax): 106 ± 11.6 nM | AUC [1, 11]: 0.805 µM·h | MRT [1, 11]: 3.39 h | half-life [1, 11]: 2.45 h | Cmax ([1]; male, CD-1, mouse, in vivo, po, intact prodrug, plasma, mice, 10 mg/kg eqv, read-out: Cmax): 546 ± 25.8 nM | Tmax [1, 11]: 1 h | Kp ([1]; male, CD-1, mouse, in vivo, intact prodrug, mice, 10 mg/kg eqv, read-out: Brain:Plasma ratio): 0.6 | plasma exposure of the intact compound (AUC0-t) ([2]; oral 10 mg/kg DPTIP equivalent): 0.8299 µM·h | conversion of prodrug to DPTIP in vivo ([2]; oral 10 mg/kg DPTIP equivalent (P18: in the brain)): about 40% | improvement of brain and plasma levels of DPTIP and/or its brain penetration index compared with DPTIP [3]: highest improvement | Stability in mouse (% remaining at 1h) Mean + Std Error, Liver [4]: 85 ± 3% | Stability in mouse (% remaining at 1h) Mean + Std Error, Plasma ([5]; CES1−/− mouse plasma, 37° C.): 90 ± 2%

Cmax ([1]; male, CD-1, mouse, plasma, po): 400 nM | brain levels of DPTIP ([1]; mice, oral 10 mg/kg DPTIP equivalent): 50 nM | Stability in mouse (% remaining at 1h) Mean + Std Error, Liver [4]: 98 ± 6% | Stability in mouse (% remaining at 1h) Mean + Std Error, Plasma ([5]; CES1−/− (carboxylesterase 1 knockout), mouse, plasma): 103 ± 2% | Stability in mouse (% remaining at 1h) Mean + Std Error, Brain [7]: 89 ± 4% | AUC [8]: 7.47 µM·h | Cmax [8]: 5500 nM
Structure (SMILES): COc1cc(-c2nc(-c3cccs3)c(-c3ccccc3)[nH]2)cc(OC)c1O [DPTIP, 2,6-dimethoxy-4-(5-phenyl-4-(thiophen-2-yl)-1H-imidazol-2-yl) phenol, reference compound]
t1/2 (rapid clearance) of DPTIP [6]: < 0.5 h | inhibition of EV release (EV release): dose-dependently inhibiting EV release in vitro and in vivo

Structure (SMILES): COc1cc(-c2nc(-c3ccccc3)c(-c3cccs3)[nH]2)cc(OC)c1OC(=O)C1=CN(C)C=CC1 [Compound P17, 2,6-Dimethoxy-4-(4-phenyl-5-(thiophen-2-yl)-1H-imidazol-2-yl)phenyl 1-methyl-1,4-dihydropyridine-3-carboxylate]
Stability in mouse (% remaining at 1h) Mean + Std Error, Liver [4]: 22 ± 1% | Stability in mouse (% remaining at 1h) Mean + Std Error, Plasma ([5]; CES1−/− mouse plasma, 37° C.): 52 ± 2% | intact prodrug remaining after 1 hour of incubation [9]: approximately 50%
